Test results as given in ChEMBL document CHEMBL3286369, “β-Secretase (BACE1)-inhibiting C-methylrotenoids from Abronia nana suspension cultures” (Bioorg Med Chem Lett, 2014).
pIC50, pKi: −log10 of the molar value. Values belong to the compound of their own block, whether it stands above or below them. The source made the active and inactive calls. The rule behind the calls is not given here.

Columns and labels:
Beta-secretase 1 [1] = biological target: T1, Beta-secretase 1 (Homo sapiens, UniProt P56817); assay: Inhibition of BACE1 (unknown origin)
T1 sequence (P56817 whole entry): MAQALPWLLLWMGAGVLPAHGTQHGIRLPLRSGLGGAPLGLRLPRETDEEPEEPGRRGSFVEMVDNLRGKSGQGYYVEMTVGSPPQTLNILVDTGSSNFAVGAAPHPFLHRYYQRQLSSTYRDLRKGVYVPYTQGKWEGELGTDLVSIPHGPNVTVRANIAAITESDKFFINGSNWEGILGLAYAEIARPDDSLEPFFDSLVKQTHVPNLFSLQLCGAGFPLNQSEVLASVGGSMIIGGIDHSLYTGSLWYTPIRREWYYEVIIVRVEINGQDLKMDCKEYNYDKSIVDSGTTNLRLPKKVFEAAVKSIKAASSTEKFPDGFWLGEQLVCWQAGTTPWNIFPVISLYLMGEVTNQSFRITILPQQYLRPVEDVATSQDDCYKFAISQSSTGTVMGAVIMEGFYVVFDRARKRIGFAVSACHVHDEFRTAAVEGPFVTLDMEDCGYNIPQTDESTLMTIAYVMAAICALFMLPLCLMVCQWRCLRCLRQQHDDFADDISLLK

Beta-secretase 1 [2] = biological target: T1, Beta-secretase 1; assay: Inhibition of BACE1 (unknown origin) expressed in CHO cells coexpressing human APP gene assessed as inhibition of beta-amyloid synthesis; type: cell-based
Beta-secretase 1 [3] = biological target: T1, Beta-secretase 1; assay: Non-competitive inhibition of BACE1 (unknown origin) by Dixon plot analysis
Homo sapiens [4] = organism: Homo sapiens; assay: Inhibition of elastase (unknown origin) up to 1 mM
Trypsin (Homo sapiens) = Trypsin (Homo sapiens) (UniProt P07477+P07478+P35030); assay: Inhibition of trypsin (unknown origin) up to 1 mM; type: protein assay
Homo sapiens [5] = organism: Homo sapiens; assay: Inhibition of chymotrypsin (unknown origin) up to 1 mM
[6] = biological target: Beta-secretase 1 (Mus musculus) (UniProt P56818); assay: Inhibition of BACE1 in mouse N2A cells transfected with human APP Swedish mutant assessed as amyloid beta (1-42) production at 50 uM; type: cell-based; parameters: scale not given: the % may be the effect or the level left
Sequence of Beta-secretase 1 (Mus musculus) (P56818 whole entry): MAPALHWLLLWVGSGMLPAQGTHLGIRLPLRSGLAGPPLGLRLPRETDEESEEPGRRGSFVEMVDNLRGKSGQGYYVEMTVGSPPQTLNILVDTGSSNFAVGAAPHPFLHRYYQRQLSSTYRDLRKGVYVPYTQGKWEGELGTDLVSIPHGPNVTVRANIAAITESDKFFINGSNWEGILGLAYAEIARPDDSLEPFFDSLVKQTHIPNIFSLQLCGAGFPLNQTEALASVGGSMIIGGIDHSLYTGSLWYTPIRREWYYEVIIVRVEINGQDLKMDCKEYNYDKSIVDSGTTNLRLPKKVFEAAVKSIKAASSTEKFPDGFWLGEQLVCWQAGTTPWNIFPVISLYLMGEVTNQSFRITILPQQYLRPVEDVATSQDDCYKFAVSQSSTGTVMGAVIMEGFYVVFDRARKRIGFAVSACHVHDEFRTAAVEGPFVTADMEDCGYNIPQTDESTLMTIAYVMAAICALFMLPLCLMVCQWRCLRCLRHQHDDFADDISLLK

N2a = assay: Cytotoxicity against mouse N2A cells transfected with human APP Swedish mutant assessed as cell viability at 1 to 50 uM; type: cell-based

SMILES: O=C1O[C@@H]2[C@@H](OC(=O)c3cc(O)c(O)c(O)c3-c3c1cc(O)c(O)c3O)[C@H](O)O[C@@H]1COC(=O)c3cc(O)c(O)c(O)c3-c3c(O)c(O)c4oc(=O)c5c(c(O)c(O)c6oc(=O)c3c4c65)-c3c(cc(O)c(O)c3O)C(=O)O[C@@H]21 [PUNICALAGIN]
- pIC50 (Beta-secretase 1 [1]): 6.39

SMILES: O=C(OC[C@H]1O[C@@H](OC(=O)c2cc(O)c(O)c(O)c2)[C@H](OC(=O)c2cc(O)c(O)c(O)c2)[C@@H](OC(=O)c2cc(O)c(O)c(O)c2)[C@@H]1OC(=O)c1cc(O)c(O)c(O)c1)c1cc(O)c(O)c(O)c1 [PENTAGALLOYL GLUCOSE]
- pIC50 (Beta-secretase 1 [1]): 5.42
- pKi (Beta-secretase 1 [1]): 5.29

SMILES: COc1cc2c(c(O)c1C)C(=O)[C@@]1(O)c3cccc(OC)c3OC[C@@H]1O2
- pIC50 (Beta-secretase 1 [1]): 4.21
- inhibition (Beta-secretase 1 [1]): Dose-dependent effect

SMILES: COC1Oc2cc(O)ccc2-c2c1oc1cc(O)c(C)c(O)c1c2=O (centres undefined) [BOERAVINONE D]
- pKi (Beta-secretase 1 [3]): 5.30
- inhibition (Homo sapiens [4]): inactive
- inhibition (Trypsin (Homo sapiens)): inactive
- pIC50 (Beta-secretase 1 [1]): 5.32
- inhibition (Beta-secretase 1 [1]): Dose-dependent effect
- inhibition (Homo sapiens [5]): inactive

SMILES: COc1cc2oc3c(c(=O)c2c(O)c1C)-c1ccc(O)cc1OC3O (centres undefined)
- pKi (Beta-secretase 1 [3]): 5.37
- inhibition (Homo sapiens [4]): inactive
- inhibition (Trypsin (Homo sapiens)): inactive
- Activity [6]: 56%
- Activity (N2a): Non-toxic
- pIC50 (Beta-secretase 1 [1]): 5.37
- inhibition (Beta-secretase 1 [1]): Dose-dependent effect
- inhibition (Homo sapiens [5]): inactive

SMILES: COc1cc2oc3c(c(=O)c2c(O)c1C)-c1ccccc1OC3OC (centres undefined)
- pIC50 (Beta-secretase 1 [1]): < 2.52

Continued, values first:

- pIC50 (Beta-secretase 1 [1]): 5.41
SMILES: O=c1oc2c(O)c(O)cc3c(=O)oc4c(O)c(O)cc1c4c23 [ELLAGIC ACID]

- pIC50 (Beta-secretase 1 [1]): 5.51
- pKi (Beta-secretase 1 [1]): 5.16
SMILES: O=C(O[C@@H]1O[C@@H]2COC(=O)c3cc(O)c(O)c(O)c3-c3c(cc(O)c(O)c3O)C(=O)O[C@H]2[C@H](OC(=O)c2cc(O)c(O)c(O)c2)[C@H]1OC(=O)c1cc(O)c(O)c(O)c1)c1cc(O)c(O)c(O)c1 [EUGENIIN]

- pIC50 (Beta-secretase 1 [2]): 3.74
SMILES: C=C[C@H](c1ccccc1O)c1cc(O)c(OC)cc1OC [LATIFOLIN]
